Results as given in patent publication US20260200974A1, “PEPTIDE FOR CARTILAGE REGENERATION, AND USES THEREOF” (CAREGEN CO., LTD., priority 2022, published 2026).
Where a SMILES comes first, the peptide text is derived from it. Where no end group is shown, it is not given here.

What was measured:
[1] = tested on: human adipose-derived mesenchymal stem cells (AD-MSC); test: SRB staining, cell morphology changes; format: cell-based; details: peptide at different concentrations, FIG. 1, FIG. 2
Experimental: Additionally, for SRB staining, after suctioning the medium from the plate, 60 μL of 3.7% formalin was added to the 96-well plate to be stained and fixed for 1 minute. After suctioning 3.7% formalin, 70 μL of SRB staining solution (sulforhodamine B sodium salt (sigma, S9012): 0.2 g in 100 mL DDW) was added and stained. The plate was covered with aluminum foil, blocked from light, and incubated overnight at room temperature. After washing with 100 μL of 1% acetic acid using a multi-pipette, it was dried and observed under a microscope. Meanwhile, in this example, the positive control group (CM) used was one containing dexamethasone (100 nM), […], proline (40 μM), TGFβ1 (10 ng/ml), and 1×ITS.

[2] = tested on: human adipose-derived mesenchymal stem cells (AD-MSC); test: CCK-8 assay, cytotoxicity; format: cell-based; details: 7 days, peptide at different concentrations, FIG. 3, FIG. 4
Experimental: Specifically, AD-MSC cells were seeded in 96-well plates at a density of 1.5×10^3 cells/well and cultured in Dulbecco's Modified Eagle's Medium (DMEM) supplemented with 10% FBS for 24 hours. Then, the medium was replaced with DMEM medium supplemented with 5% FBS, and Peptide-1 or Peptide-2 was treated at different concentrations, respectively. Subsequently, the medium was replaced every 3 days and Peptide-1 or Peptide-2 was treated at different concentrations, respectively. To confirm CCK-8 activity, after 7 days, CCK-8 (Dojindo, CCK-8 kit) solution was added at 1/10 volume of the culture medium, and incubated for 2 hours. The culture medium was sampled and CCK-8 activity was confirmed at a wavelength of 450 nm using a microplate reader.

CC(C)C[C@H](NC(=O)[C@@H](N)CCCNC(=N)N)C(=O)N[C@@H](CCCNC(=N)N)C(=O)N[C@@H](CO)C(=O)O [Peptide-2, RLRS] (H-RLRS-OH)
change in cell morphology in SRB staining [1]: did not show any change in cell morphology | toxicity toward adipose-derived mesenchymal stem cells (CCK-8 activity) [2]: did not exhibit toxicity

LYRYEEHHE [Peptide-1, LYRYEEHHE]
change in cell morphology in SRB staining [1]: did not show any change in cell morphology | toxicity toward adipose-derived mesenchymal stem cells (CCK-8 activity) [2]: did not exhibit toxicity
